Measured values from patent publication US20080119412A1, “Polypeptides for Modulating Binding of Trp Channel Proteins and Trp- Associated Proteins” (NoNO Inc., priority 2003, published 2008).
Residues, ends and D or L forms follow the SMILES beside them. No end group written: not given here. *: point of attachment. Biotin = O=C1N[C@H]2[C@H](CS[C@H]2CCCCC(=O)*)N1

Columns and labels:
TIP1 d1 = molecular target: T1, TIP1 d1 (Homo sapiens, UniProt O14907); assay: G3 assay titration, GST-PDZ fusion / biotinylated peptide; assay type: binding
T1 construct: made in house; host or cells: E. coli (DH5alpha, BL21 or JM109)
T1 sequence (O14907 14-116): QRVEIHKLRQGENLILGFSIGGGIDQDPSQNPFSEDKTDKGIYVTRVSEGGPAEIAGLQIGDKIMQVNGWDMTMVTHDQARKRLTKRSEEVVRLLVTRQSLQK
Experimental: The G3 assay is identical to the G0 assay with the following exceptions. The peptides are typically present at 0.1 μM rather than 20 μM. The peptides are also pre-incubated with the HRP-streptavidin prior to adding to the assay plate. In the G0 assay, free peptide is incubated with the PDZ proteins prior to the addition of the HRP-streptavidin. Thus, for the G0 assay one can lose signal if the bound peptide dissociates from the PDZ protein prior to the addition of the HRP-streptavidin. In the G3 modified assay the HRP-streptavidin/peptide complex is added to the plate in one step, thus increasing the likelihood that all the bound peptide will be bound to HRP-streptavidin. The G3 modified assay increases the chance of observing weak interactions.
This example describes assays to identify binding between TRPM7 and PDZ domains. GST-PDZ fusions are produced that each contain an entire PDZ domain (or multiple PDZ domains), the collection encompassing approximately 90% of all PDZ domains identified in the human genome. (See Table 5 and Section V (PDZ Proteins and PL Protein Interactions Disclosure). Biotinylated peptide corresponding to 11 residues of Tat coupled to the C-terminal 9 amino acids of TRPM7 ([…]; SEQ ID NO:258) is synthesized and purified by HPLC.
• Nunc MaxiSorp 96 well Immuno-plate, Nunc • PBS pH 7.4 (phosphate buffered saline, 8 g NaCl, 0.29 g KCl, 1.44 g Na2HPO4, 0.24 g KH2PO4, add H2O to 1 liter and pH 7.4; 0.2 μm filter) • Assay Buffer: 2% BSA in PBS (20 g of bovine serum albumin per liter PBS, fraction V, ICN Biomedicals, cat#IC15142983 • Goat anti-GST polyclonal Ab, stock 5 mg/ml, stored at 4° C., Amersham Pharmacia cat#27-4577-01 • Dilute 1:1000 in PBS, final concentration 5 μg/ml. • HRP-Streptavidin, 2.5 mg/2 ml stock stored at 4° C., Zymed cat#43-4323, dilute 1:2000 into Assay buffer, final concentration of […] • Wash Buffer, PBS • Biotinylated peptides (HPLC purified, stock solution stored in −20° C. freezer) • GST-PRISM proteins (stock stored at −80° C., after 1st thaw store in −10° C. freezer) • TMB (3,3′,5,5′, teramethylbensidine), tablets, Sigma cat.#T5525 • Per plate, dissolve 1 tablet in 1 ml DMSO, add 9 ml Citrate/Phosphate buffer pH 5.4 and 2 μL H2O2 • 0.1 M H2SO4, Sigma cat.#S1526 • 12-w multichannel pipettor & tips • 50 ml reagent reservoirs, Costar#4870 • 50, 15 ml polypropylene conical tubes • Costar Transtar 96 Costar #7605 • Transtar 96 Cartridge Costar #7610 • Molecular Devices microplate reader (450 & 650 nm filters) with SoftMax Pro software *When using reagents stored at or 4° C. or −20° C., remove & keep on ice
• 1. Coat plate with 100 μl of 5 μg/ml anti-GST, overnight at 4° C. • 2. Dump contents of plate & out tap dry on paper towels • 3. Block with 200 μl Assay Buffer for 2 hrs at room temperature • 4. Prepare proteins at 5 μg/ml in Assay Buffer • 5. Wash 3× with cold PBS (4° C.), avoiding letting the plates dry out • 6. Add proteins at 50 μl per well, incubate 1 to 2 hrs at 4° C. • 7. Prepare peptides to desired concentration in Assay Buffer • 8. Wash 3× with cold PBS (4° C.), avoiding letting the plates dry out • 9. Add HRP-Streptavidin/peptide complex [prepared by incubating for 20 minutes at room temperature HRP-Streptavidin (1:2000) with the desired biotin-peptide concentration for 20 minutes at room temperature] at 50 μl per well on ice • 10. Place at room temperature for exactly 30 minutes • 11. Promptly wash 5× with PBS at room temperature • 12. Add 100 μl/well TMB substrate (write time on plate) • 13. Incubate in dark at room temperature for a maximum of 30 minutes • 14. Read plate at 25 minutes (650 nm), optional • 15. Stop reaction with 100 μl of 0.18 M H2SO4, 30 minutes after adding TMB • Take last reading at 450 nm soon after stopping reaction
The G3 assay was performed on a subset of the PDZ domains as in Example II except that the concentration of peptide was 0.002 μM, […], 0.1 μM, 0.2 μM, 1 μM, and 2 μM. Data was fitted to the equation: […]

TRPM7 = TRPM7 (Homo sapiens, UniProt Q96QT4); conditions: intracellular free; cited from earlier work
Chain of TRPM7 (Q96QT4 whole entry): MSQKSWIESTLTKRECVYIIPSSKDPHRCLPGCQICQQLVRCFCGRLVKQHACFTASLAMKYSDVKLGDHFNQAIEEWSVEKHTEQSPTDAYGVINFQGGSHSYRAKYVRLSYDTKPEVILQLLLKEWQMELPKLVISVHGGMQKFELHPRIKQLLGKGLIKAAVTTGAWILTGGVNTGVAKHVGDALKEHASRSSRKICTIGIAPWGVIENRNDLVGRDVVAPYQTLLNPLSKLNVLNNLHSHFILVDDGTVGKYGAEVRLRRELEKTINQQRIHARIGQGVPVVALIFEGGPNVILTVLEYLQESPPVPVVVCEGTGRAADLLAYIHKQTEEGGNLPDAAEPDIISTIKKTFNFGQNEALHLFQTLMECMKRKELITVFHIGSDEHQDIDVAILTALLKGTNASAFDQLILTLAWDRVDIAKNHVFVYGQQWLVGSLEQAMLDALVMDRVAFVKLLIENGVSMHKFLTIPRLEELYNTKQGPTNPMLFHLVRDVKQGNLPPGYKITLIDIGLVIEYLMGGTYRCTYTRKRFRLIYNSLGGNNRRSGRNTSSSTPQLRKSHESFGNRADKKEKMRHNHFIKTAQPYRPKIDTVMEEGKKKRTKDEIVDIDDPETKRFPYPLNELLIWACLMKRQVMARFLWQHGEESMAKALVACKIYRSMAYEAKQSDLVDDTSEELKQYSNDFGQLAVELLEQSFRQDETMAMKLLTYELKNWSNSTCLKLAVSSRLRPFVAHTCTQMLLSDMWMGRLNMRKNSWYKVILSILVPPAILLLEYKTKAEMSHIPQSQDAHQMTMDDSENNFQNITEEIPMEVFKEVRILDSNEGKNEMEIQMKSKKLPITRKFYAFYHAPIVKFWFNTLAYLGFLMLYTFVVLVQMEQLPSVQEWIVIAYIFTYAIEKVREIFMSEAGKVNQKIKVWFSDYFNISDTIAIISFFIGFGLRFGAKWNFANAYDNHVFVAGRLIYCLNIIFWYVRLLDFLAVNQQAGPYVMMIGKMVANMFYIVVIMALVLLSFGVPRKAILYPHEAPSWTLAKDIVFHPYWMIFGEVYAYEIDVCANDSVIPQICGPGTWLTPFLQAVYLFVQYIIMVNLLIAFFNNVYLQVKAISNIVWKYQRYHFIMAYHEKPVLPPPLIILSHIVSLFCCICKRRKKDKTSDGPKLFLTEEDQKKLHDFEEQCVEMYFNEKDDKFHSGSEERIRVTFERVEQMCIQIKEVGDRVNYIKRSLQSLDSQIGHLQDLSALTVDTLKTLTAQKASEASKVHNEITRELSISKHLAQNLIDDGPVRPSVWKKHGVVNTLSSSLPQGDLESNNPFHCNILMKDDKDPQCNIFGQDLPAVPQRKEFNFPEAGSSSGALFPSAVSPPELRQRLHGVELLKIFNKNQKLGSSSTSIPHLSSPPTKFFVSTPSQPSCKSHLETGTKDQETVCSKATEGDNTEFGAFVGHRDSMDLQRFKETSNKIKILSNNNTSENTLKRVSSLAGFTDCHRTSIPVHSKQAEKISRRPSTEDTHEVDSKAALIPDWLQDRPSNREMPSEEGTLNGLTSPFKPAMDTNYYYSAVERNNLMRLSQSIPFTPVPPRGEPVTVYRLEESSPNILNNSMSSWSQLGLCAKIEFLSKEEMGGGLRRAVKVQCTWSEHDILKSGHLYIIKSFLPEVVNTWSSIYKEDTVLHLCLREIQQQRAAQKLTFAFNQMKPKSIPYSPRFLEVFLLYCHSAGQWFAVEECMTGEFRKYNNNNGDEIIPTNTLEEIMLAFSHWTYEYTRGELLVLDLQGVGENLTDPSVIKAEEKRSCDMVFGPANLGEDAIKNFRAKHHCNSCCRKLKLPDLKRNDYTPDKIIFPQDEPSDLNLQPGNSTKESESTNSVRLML

neurons [1] = assay: Neuronal survival 20 h after NMDA challenge (FIG. 14); assay type: cell-based; conditions: 20 h after 1 h NMDA challenge; peptide applied immediately after the NMDA challenge
Experimental: The sequence of Tat-9cTRPM7 is: [[…] or [[…]-[…]], whereby the first 11 residues correspond to the cell membrane transduction domain of the human immunodeficiency virus type 1 (HIV-1) Tat protein and the last 9 residues correspond to the last 9 amino acids of the C-terminus of human TRPM7 (accession Q96QT4). […] (A) Neuronal survival at 20 h in the indicated concentrations of Tat-9cTRPM7 in the absence of excitotoxic challenge. (B) Neuronal survival 20 h after challenging the cultures for 1 h with the indicated concentration of NMDA. Tat-9cTRPM7 was applied immediately after the NMDA challenge.
The sequence of Tat-9cTRPM7 is: [[…]-[…]; SEQ ID NO:258], whereby the first 11 residues correspond to the cell-membrane transduction domain of the human immunodeficiency virus type 1 (HIV-1) Tat protein and the last 9 residues correspond to the last 9 amino acids of the C-terminus of human TRPM7 (accession Q96QT4). (A) Neuronal survival at 20 h in the indicated concentrations of Tat-9cTRPM7 in the absence of excitotoxic challenge. (B) Neuronal survival 20 h after challenging the cultures for 1 h with the indicated concentration of NMDA. Tat-9cTRPM7 was applied immediately after the NMDA challenge.

neurons [2] = assay: Oxygen-glucose deprivation (OGD) of neurons: ROS production, calcium uptake, cell death; assay type: cell-based; conditions: prolonged OGD, FIG. 7
Experimental: The fraction of dead cells was determining by dividing the number of neurons expressing GFP which became stained with propidium iodide 20 h after OGD by the number of neurons expressing GFP at the beginning of the experiment. Data for each culture was obtained from counting cells in 3 high power microscope fields per experiment.

Compound: CC(C)[C@H](NC(=O)[C@H](CCC(=O)O)NC(=O)[C@@H](NC(=O)[C@H](CCC(=O)O)NC(=O)[C@H](CCCNC(=N)N)NC(=O)[C@H](Cc1ccccc1)NC(=O)[C@H](Cc1c[nH]cn1)NC(=O)[C@H](CCCCN)NC(=O)[C@H](CCC(=O)O)NC(=O)[C@H](CCCNC(=N)N)NC(=O)[C@H](CCCNC(=N)N)NC(=O)[C@H](CCCNC(=N)N)NC(=O)[C@H](CCC(N)=O)NC(=O)[C@H](CCCNC(=N)N)NC(=O)[C@H](CCCNC(=N)N)NC(=O)[C@H](CCCCN)NC(=O)[C@H](CCCCN)NC(=O)[C@H](CCCNC(=N)N)NC(=O)CNC(=O)[C@H](Cc1ccc(O)cc1)NC(=O)CCCC[C@@H]1SC[C@@H]2NC(=O)N[C@@H]21)[C@@H](C)O)C(=O)O [AA353] (Biotin-YGRKKRRQRRREKHFRETEV-OH)
- EC50 (TIP1 d1): < 2 nM

Compound: [Mg+2] [Mg^2+]
- concentration inhibiting TRPM7 (TRPM7): 0.6 mM

Compound: YGRKKRRQRRRSTNSVRLML [Tat-9cTRPM7]
- Neuronal survival (neurons [1]): enhanced survival

Compound: [Gd+3] [Gd^3+]
- survival of neurons (neurons [2]): permit survival of neurons destined to die from prolonged OGD
